Key:
Test in all cases: in-line probing
[1] = test system: 11-1 (RNA, aptamer) GGCUACCGCCGCUGGCUCUCGGGCGACUGUGCCUCGCGUGGAUAUGGCACGCGUAGAAGGGCACCGUAAAUGUCCUACUUGCGGUAGUCAUCCCGAUGGACACUGUCGGCGUAG; conditions: 10 mM MgCl2, 50 mM KCl (1x of 2x buffer); 25 mM Tris-HCl pH 8.3 (1x), room temperature, ~48 h
[2] = test system: 11-1B (RNA, aptamer) GGCUACCGCCGCUGGCUCUCGGGCGACUGUGCCUCGCGUGGAUAUGGCACGCGUAGAAGGGCACCGUAAAUGUCCUACUUGCGGUAGUC; conditions: 10 mM MgCl2, 50 mM KCl (1x of 2x buffer); 25 mM Tris-HCl pH 8.3 (1x), room temperature, ~48 h
[3] = test system: r10-1 (RNA, aptamer) GGACCUCGAGGCUACCGCGGCUGGCUCUCGGACGACUAUGCCUCGCGUGGAUAUGGCACGCGUAGAAGGGCACCGUAAAUGUCCUACUUGCGGUAGUCAUCCCGAUGGA; conditions: 10 mM MgCl2, 50 mM KCl (1x of 2x buffer); 25 mM Tris-HCl pH 8.3 (1x), room temperature, ~48 h
[4] = test system: r10-2 (RNA, aptamer) GGACCUCGAGGCUACCGCAGCUGGCUCUCGGACGACUAUGCCUCGCGUGGAUAUGGCACGCGUAGAAGGGCACCGUAAAUGUCCUACUUGCGGUAGUCAUCCCGAUGGA; conditions: 10 mM MgCl2, 50 mM KCl (1x of 2x buffer); 25 mM Tris-HCl pH 8.3 (1x), room temperature, ~48 h
[5] = test system: r10-3 (RNA, aptamer) GGACCUCGAGGCUACCGCGGCUGGCUCUCGGACGACUGUGCCUCGCGUGGAUAUGGCACGCGUAGAAGGACACCGUAAAUGUCCUACUUGCGGUAGUCAUCCCGAUGGA; conditions: 10 mM MgCl2, 50 mM KCl (1x of 2x buffer); 25 mM Tris-HCl pH 8.3 (1x), room temperature, ~48 h
[6] = test system: r10-4 (RNA, aptamer) GGACCUCGAGGCUACCGCGGCUGGCUCUCGGACGACUAUGCCUCGCGUGGAUAUGGCACGCGUAGAAGGGCACCGUAAAUGCCCUACUUGCGGUAGUCAUCCCGAUGGA; conditions: 10 mM MgCl2, 50 mM KCl (1x of 2x buffer); 25 mM Tris-HCl pH 8.3 (1x), room temperature, ~48 h
[7] = test system: r10-1C (RNA, aptamer) GGCUACCGCGGCUGGCUUCGGCCUCGCGUGGAUAUGGCACGCGUAGAAGGGCACCGUAAAUGUCCUACUUGCGGUAGUC; conditions: 10 mM MgCl2, 50 mM KCl (1x of 2x buffer); 25 mM Tris-HCl pH 8.3 (1x), room temperature, ~48 h
[8] = test system: r10-1C-M1 (RNA, aptamer) GGCUACCGCGGCUGGCUUCGGCCUCGCGUGGAUAUAACACGCGUAGAAGGGCACCGUAAAUGUCCUACUUGCGGUAGUC; conditions: 10 mM MgCl2, 50 mM KCl (1x of 2x buffer); up to 10 μM branaplam; 25 mM Tris-HCl pH 8.3, room temperature
[9] = test system: r10-1G (RNA, aptamer) GGCUGGCUUCGGCCUCGCGUGGAUAUGGCACGCGUAGAAGGGCACCGUAAAUGUCCUACUU; conditions: 10 mM MgCl2, 50 mM KCl (1x of 2x buffer); 25 mM Tris-HCl pH 8.3 (1x), room temperature, ~48 h
[10] = test system: r10-1H (RNA, aptamer) GGCCUCGCGUGGAUAUGGCACGCGUAGAAGGGCACCGUAAAUGUCCUACUU; conditions: 10 mM MgCl2, 50 mM KCl (1x of 2x buffer); 25 mM Tris-HCl pH 8.3 (1x), room temperature, ~48 h
[11] = test system: r10-1N (RNA, aptamer) GGCCUCGCGUGGAUAUGGCACGCGUAGAAGGGCACCGUAAAUGUCCUA; conditions: 10 mM MgCl2, 50 mM KCl (1x of 2x buffer); 25 mM Tris-HCl pH 8.3 (1x), room temperature, ~48 h
[12] = test system: 11-19A (RNA, aptamer) GGCUACCGCCGCUGGGCUCUCGGGACGACACUGAGGGAACGCGUGGAUAUGGCACGCAACAGCGGGCACCGUAAAUGUCCUGGCGGUAGUC; conditions: 10 mM MgCl2, 50 mM KCl (1x of 2x buffer); 25 mM Tris-HCl pH 8.3 (1x), room temperature, ~48 h
[13] = test system: t14-4 (RNA, aptamer) GGCUGAUCUCCCAUCGGUAUGCCCUUCUGUGUGAAGGCGGUACUAAUGCCGGAGUGUAGAAACUGGAUAAUGCCAGUUAGUGGUAUGGAGAUACUACGACGCACGC; conditions: 10 mM MgCl2, 50 mM KCl (1x of 2x buffer); 25 mM Tris-HCl pH 8.3 (1x), room temperature, ~48 h
[14] = test system: 11-19 (RNA, aptamer) GGCUACCGCCGCUGGGCUCUCGGGACGACACUGAGGGAACGCGUGGAUAUGGCACGCAACAGCGGGCACCGUAAAUGUCCUGGCGGUAGUCGACCCGAUGGACACUGUCGGCGUAG; conditions: 10 mM MgCl2, 50 mM KCl (1x of 2x buffer); 0.1 to 10 μM branaplam

Question: Which KD [1] does the source give for CC1(C)CC(Oc2ccc(-c3ccc(-c4cn[nH]c4)cc3O)nn2)CC(C)(C)N1 here?
Answer: 2.44 ± 1.03 µM

Question: What about the KD [2] of the same compound?
Answer: 1.17 ± 0.17 µM

Question: And the KD [3]?
Answer: 0.42 ± 0.041 µM

Question: And the KD [4]?
Answer: 0.623 ± 0.055 µM

Question: What about the KD [5] of the same compound?
Answer: 0.964 ± 0.382 µM

Question: What about the KD [6] of the same compound?
Answer: 0.634 ± 0.074 µM

Question: And the KD [7]?
Answer: 0.4 ± 0.043 µM

Question: And the binding [8]?
Answer: no

Question: And the KD [9]?
Answer: 0.352 ± 0.021 µM

Question: What about the KD [10] of the same compound?
Answer: 0.311 ± 0.019 µM

Question: What about the KD [11] of the same compound?
Answer: 0.15 ± 0.026 µM

Question: And the KD [12]?
Answer: 0.846 ± 0.127 µM

Question: And the KD [13]?
Answer: 2.27 ± 0.15 µM

Question: What about the binding [14] of the same compound?
Answer: yes
